Data as given in ChEMBL document CHEMBL3734689, “Enzyme kinetics and inhibition of histone acetyltransferase KAT8” (Eur J Med Chem, 2015).

Each compound was assayed against T1, Histone acetyltransferase KAT8 (Homo sapiens, UniProt Q9H7Z6) (assay: Inhibition of recombinant N-terminal His6-tagged KAT8 (unknown origin) expressed in Escherichia Coli BL21 DE3 cells assessed as reduction of Co A level using histone H4 substrate after 15 mins by CPM fluorescence assay).
T1 sequence (Q9H7Z6 whole entry): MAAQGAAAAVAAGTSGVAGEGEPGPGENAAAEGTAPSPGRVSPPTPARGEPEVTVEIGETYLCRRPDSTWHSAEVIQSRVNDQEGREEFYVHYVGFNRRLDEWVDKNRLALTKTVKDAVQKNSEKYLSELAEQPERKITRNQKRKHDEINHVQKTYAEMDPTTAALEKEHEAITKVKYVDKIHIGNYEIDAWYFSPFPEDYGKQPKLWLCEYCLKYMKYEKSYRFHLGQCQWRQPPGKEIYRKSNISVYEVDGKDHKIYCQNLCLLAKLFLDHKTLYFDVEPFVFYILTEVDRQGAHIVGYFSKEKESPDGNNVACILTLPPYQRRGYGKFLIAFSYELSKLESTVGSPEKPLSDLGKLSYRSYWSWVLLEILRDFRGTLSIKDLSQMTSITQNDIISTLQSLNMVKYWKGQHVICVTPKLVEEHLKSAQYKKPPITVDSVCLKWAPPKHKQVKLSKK

In order of falling Ki:
1. O=C(O)c1c(O)cccc1CCCCCCCCCCCO  157 µM
2. CCCCCCCCCCCCCCCc1ccc(O)c(C(=O)O)c1  79 µM
3. CCCCCCCCCCc1ccc(O)c(C(=O)O)c1  57 µM
4. CCCCCCCCCCc1cccc(O)c1C(=O)O  37 µM
